# Reference: US20060069132A1, “Azolecarboxamide herbicides” (priority 2004, published 2006)
# Columns and labels:
# large crabgrass (DIGSA) = assay: Test J Compounds 2 and 6 alone and in combination with other herbicides, foliage spray; assay type: in vivo, Digitaria sanguinalis; set-up: key: 0 = no effect, 100 = complete control; settings: applied alone
# Text: Colby's Equation was used to calculate the expected additive herbicidal effect of the mixtures of Compound 6 with Harmony® Extra (i.e. a 2:1 mixture by weight of thifensulfuron-methyl and tribenuron-methyl). […]
# Seeds of test plants consisting of barnyardgrass (ECHCG; Echinochloa crus-galli (L.) Beauv.), blackgrass (ALOMY; Alopecurus myosuroides Huds.), Surinam grass (BRADC; Urochloa decumbens (Staph) R. D. Webster, previously named Brachiaria decumbens Stapf), cocklebur (XANST, Xanthium strumarium L.), corn (ZEAMD, Zea mays L. cv. ‘Pioneer 33G26’), large crabgrass (DIGSA, Digitaria sanguinalis (L.) Scop.), giant foxtail (SETFA, Setaria faberi Herrm.), lambsquarters (CHEAL, Chenopodium album L.), morningglory (IPOCO, Ipomoea coccinea L.), pigweed (AMARE, Amaranthus retroflexus L.), velvetleaf (ABUTH, Abutilon theophrasti Medik.) wheat (TRZAS, Triticum aestivum L. cv. ‘Recital’) and wild oat (AVEFA, Avena fatua L.) were planted in Redi-Earth® planting medium (Scotts Company, 14111 Scottslawn Road, Marysville, Ohio 43041) comprising spaghnum peat moss and vermiculite. […] Also listed in Table J are the expected effects for the mixtures calculated using Colby's Equation.
# wheat cv. Recital = assay: Test I safening of Compound 6 by Harmony Extra Herbicide, pre-/postemergence; assay type: in vivo, Triticum aestivum
# Method: This test evaluated the safening of Compound 6 on barley (Hordeum vulgare L.) cv. ‘Boone’ and wheat (Triticum aestivum L.) cv. ‘Recital’ by Harmony® Extra Herbicide, which comprises 50 wt % thifensulfuron-methyl and 25 wt % tribenuron-methyl. Barley and wheat seeds were planted in pots containing a pasteurized blend of Matapeake soil and sand. For postemergence testing the plants were grown 10 days so the barley seedlings were at the 2-leaf stage and the wheat seedlings were at the 2-3-leaf stage at time of treatment. Preemergence treatments were applied the day after the seeds were planted. Treatments were applied by spraying Compound 6 and/or […] in a non-phytotoxic solvent mixture, using flat fan nozzle and a spray volume of 280 L/ha. The treatments were triply replicated and the results subsequently averaged. The pots were placed on a greenhouse bench using a complete randomized block design except for the first replicate, which was unrandomized. The plants were grown in the greenhouse and watered as needed with a dilute nutrient solution containing 200 ppm of N. Illumination was daylight supplemented by artificial sources to maintain a photoperiod of 14 hours. The temperature was maintained at 23±2° C. during the day and 17±2° C. at night. The effects of the treatments were rated 25 days after preemergence treatment and 15 days after postemergence treatment. The plant response was visually rated in comparison to untreated controls using a scale of 0 to 100, with 0 representing no effect and 100 representing complete plant death.
# Colby's Equation was used to calculate the expected additive herbicidal effect of the mixtures of Compound 6 with Harmony® Extra (i.e. a 2:1 mixture by weight of thifensulfuron-methyl and tribenuron-methyl). Colby's Equation (Colby, S. R. “Calculating Synergistic and Antagonistic Responses of Herbicide Combinations,” Weeds, 15(1), pp 20-22 (1967)) calculates the expected additive effect of herbicidal mixtures, and for two active ingredients is of the form: Pa+b=Pa+Pb−(PaPb/100) wherein • Pa+b is the percentage effect of the mixture expected from additive contribution of the individual components, • Pa is the observed percentage effect of the first active ingredient at the same use rate as in the mixture, and • Pb is the observed percentage effect of the second active ingredient at the same use rate as in the mixture.
# The results and additive effects expected from Colby's Equation for the preemergence test are listed in Table I1, and the results and additive effects expected from Colby's Equation for the postemergence test are listed in Table I2.
# downy bromegrass = assay: Test F pre-/postemergence herbicide test; assay type: in vivo, Bromus tectorum
# Text: (§1) Seeds of plant species selected from annual blugrass (Poa annua L.), blackgrass (Alopecurus myosuroides Huds.), catchweed bedstraw (Gallium aparine L.), common chickweed (Stellaria media (L.) Vill./Cyr.), downy bromegrass (Bromus tectorum L.), green foxtail (Setaria viridis (L.) Beauv.), Italian ryegrass (Lolium multiflorum Lam.), kochia (Kochia scoparia (L.). Schrad.), lambsquarters (Chenopodium album L.), littleseed canarygrass (Phalaris minor Retz.), pigweed (Amaranthus retroflexus L.), Russian thistle (Salsola kali L. ssp. Ruthenica (Iljin) Soo), wild buckwheat (Polygonum convolvulus L.), wild mustard (Sinapis arvensis L.), wild oat (Avena fatua L.), windgrass (Apera spica-venti (L.) Beauv.), winter barley (Hordeum vulgare L.), and wheat (Triticum aestivum L.) were planted and treated preemergence with test chemicals formulated in a non-phytotoxic solvent mixture which included a surfactant.
# (§2) At the same time, plants selected from these crop and weed species were treated with postemergence applications of some of the test chemicals formulated in the same manner. Plants ranged in height from 2 to 18 cm (1- to 4-leaf stage) for postemergence treatments. Treated plants and controls were maintained in a greenhouse for 12 to 14 days, after which time all species were compared to controls and visually evaluated. Plant response ratings, summarized in Table F, are based on a scale of 0 to 100 where 0 is no effect and 100 is complete control. A dash (-) response means no test result.
# wheat = assay: Test F pre-/postemergence herbicide test; assay type: in vivo, Triticum aestivum
# Text: as §1, §2
smiles,measurement,setting,value
"CCn1nc(C(C)(C)C)cc1C(=O)Nc1cc(C(=O)N(C)C)ccc1F [Compound 6, N-[5-[(dimethylamino)carbonyl]-2-fluorophenyl]-3-(1,1-dimethylethyl)-1-ethyl-1H-pyrazole-5-carboxamide]",DIGSA Obsd.,large crabgrass (DIGSA); 62 g a.i./ha,8
same,DIGSA Obsd.,large crabgrass (DIGSA); 125 g a.i./ha,13
same,Wheat Observed effect,"wheat cv. Recital; postemergence, Compound 6 16, thifensulfuron-methyl 0, tribenuron-methyl 0 g a.i./ha",58
same,Wheat Observed effect,"wheat cv. Recital; postemergence, Compound 6 31, thifensulfuron-methyl 0, tribenuron-methyl 0 g a.i./ha",65
same,Wheat Observed effect,"wheat cv. Recital; preemergence, Compound 6 16, thifensulfuron-methyl 0, tribenuron-methyl 0 g a.i./ha",45
same,Wheat Observed effect,"wheat cv. Recital; preemergence, Compound 6 31, thifensulfuron-methyl 0, tribenuron-methyl 0 g a.i./ha",67
CCn1nc(C(C)(C)C)cc1C(=O)Nc1cc(C(=O)OC(C)C)c(F)cc1F [Compound 248],"Plant response rating (0-100), Bromegrass, Downy","downy bromegrass; Postemergence, 31 g ai/ha",40
same,"Plant response rating (0-100), Bromegrass, Downy","downy bromegrass; Postemergence, 62 g ai/ha",40
same,"Plant response rating (0-100), Bromegrass, Downy","downy bromegrass; Postemergence, 125 g ai/ha",40
same,"Plant response rating (0-100), Bromegrass, Downy","downy bromegrass; Postemergence, 250 g ai/ha",40
same,"Plant response rating (0-100), Bromegrass, Downy","downy bromegrass; Preemergence, 31 g ai/ha",35
same,"Plant response rating (0-100), Bromegrass, Downy","downy bromegrass; Preemergence, 62 g ai/ha",45
same,"Plant response rating (0-100), Bromegrass, Downy","downy bromegrass; Preemergence, 125 g ai/ha",50
same,"Plant response rating (0-100), Bromegrass, Downy","downy bromegrass; Preemergence, 250 g ai/ha",65
same,"Plant response rating (0-100), Wheat","wheat; Postemergence, 31 g ai/ha",0
same,"Plant response rating (0-100), Wheat","wheat; Postemergence, 62 g ai/ha",5
same,"Plant response rating (0-100), Wheat","wheat; Postemergence, 125 g ai/ha",5
same,"Plant response rating (0-100), Wheat","wheat; Postemergence, 250 g ai/ha",20
same,"Plant response rating (0-100), Wheat","wheat; Preemergence, 31 g ai/ha",0
same,"Plant response rating (0-100), Wheat","wheat; Preemergence, 62 g ai/ha",0
same,"Plant response rating (0-100), Wheat","wheat; Preemergence, 125 g ai/ha",0
same,"Plant response rating (0-100), Wheat","wheat; Preemergence, 250 g ai/ha",10
